Assay results as given in patent US12667619B2, “Integrin targeting ligands and uses thereof” (Arrowhead Pharmaceuticals, Inc., priority 2018, dated 2026).

Assays:
αvβ3 integrin = αvβ3 integrin (Homo sapiens, UniProt P05106+P06756); assay: IC50 binding activity, αvβ3 integrin; settings: read-out: IC50 ανβ3
Source text: (§1) As reported in the following Table 1, IC50 binding data was obtained for the integrin targeting ligands of Structures 1c, 2c, and 3c, as w ell as an RGD-mimetic peptide:
(§2) Moreover, while the RGD-mimetic ligand is shown to have binding activity, the integrin targeting ligands of the present disclosure have increased stability, both with respect to serum stability in vim and chemical stability ex vim, compared to such peptide-based RGD-mimetic ligands.

αvβ5 integrin = αvβ5 integrin (Homo sapiens, UniProt P06756+P18084); assay: IC50 binding activity, αvβ5 integrin; settings: read-out: IC50 ανβ5
Chain of αvβ5 integrin (P06756 31-1048): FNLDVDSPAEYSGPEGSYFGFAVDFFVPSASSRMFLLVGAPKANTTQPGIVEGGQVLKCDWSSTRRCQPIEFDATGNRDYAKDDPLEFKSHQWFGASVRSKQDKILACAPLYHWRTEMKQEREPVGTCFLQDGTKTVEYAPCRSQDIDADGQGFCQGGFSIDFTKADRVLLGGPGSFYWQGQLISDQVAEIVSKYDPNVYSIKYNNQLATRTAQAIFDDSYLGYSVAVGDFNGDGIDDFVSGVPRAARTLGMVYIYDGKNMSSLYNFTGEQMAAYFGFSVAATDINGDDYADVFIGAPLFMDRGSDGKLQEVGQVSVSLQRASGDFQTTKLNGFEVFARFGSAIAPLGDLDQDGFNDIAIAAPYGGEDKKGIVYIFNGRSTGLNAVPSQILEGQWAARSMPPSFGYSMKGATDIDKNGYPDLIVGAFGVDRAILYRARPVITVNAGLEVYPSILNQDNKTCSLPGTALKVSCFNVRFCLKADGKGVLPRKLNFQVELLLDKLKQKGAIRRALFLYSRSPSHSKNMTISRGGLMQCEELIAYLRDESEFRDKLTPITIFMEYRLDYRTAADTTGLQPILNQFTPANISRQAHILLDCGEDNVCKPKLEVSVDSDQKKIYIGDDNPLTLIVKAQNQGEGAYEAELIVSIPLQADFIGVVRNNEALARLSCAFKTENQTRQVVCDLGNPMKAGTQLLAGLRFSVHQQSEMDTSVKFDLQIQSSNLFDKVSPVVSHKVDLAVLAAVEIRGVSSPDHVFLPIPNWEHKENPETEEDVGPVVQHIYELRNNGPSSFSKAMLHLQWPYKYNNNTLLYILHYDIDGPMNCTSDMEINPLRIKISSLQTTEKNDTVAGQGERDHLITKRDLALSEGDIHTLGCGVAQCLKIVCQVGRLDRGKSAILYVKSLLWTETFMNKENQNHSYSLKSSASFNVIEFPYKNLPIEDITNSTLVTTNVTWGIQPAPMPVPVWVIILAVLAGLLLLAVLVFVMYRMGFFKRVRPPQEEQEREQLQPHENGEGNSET
Chain of αvβ5 integrin (P18084 24-799): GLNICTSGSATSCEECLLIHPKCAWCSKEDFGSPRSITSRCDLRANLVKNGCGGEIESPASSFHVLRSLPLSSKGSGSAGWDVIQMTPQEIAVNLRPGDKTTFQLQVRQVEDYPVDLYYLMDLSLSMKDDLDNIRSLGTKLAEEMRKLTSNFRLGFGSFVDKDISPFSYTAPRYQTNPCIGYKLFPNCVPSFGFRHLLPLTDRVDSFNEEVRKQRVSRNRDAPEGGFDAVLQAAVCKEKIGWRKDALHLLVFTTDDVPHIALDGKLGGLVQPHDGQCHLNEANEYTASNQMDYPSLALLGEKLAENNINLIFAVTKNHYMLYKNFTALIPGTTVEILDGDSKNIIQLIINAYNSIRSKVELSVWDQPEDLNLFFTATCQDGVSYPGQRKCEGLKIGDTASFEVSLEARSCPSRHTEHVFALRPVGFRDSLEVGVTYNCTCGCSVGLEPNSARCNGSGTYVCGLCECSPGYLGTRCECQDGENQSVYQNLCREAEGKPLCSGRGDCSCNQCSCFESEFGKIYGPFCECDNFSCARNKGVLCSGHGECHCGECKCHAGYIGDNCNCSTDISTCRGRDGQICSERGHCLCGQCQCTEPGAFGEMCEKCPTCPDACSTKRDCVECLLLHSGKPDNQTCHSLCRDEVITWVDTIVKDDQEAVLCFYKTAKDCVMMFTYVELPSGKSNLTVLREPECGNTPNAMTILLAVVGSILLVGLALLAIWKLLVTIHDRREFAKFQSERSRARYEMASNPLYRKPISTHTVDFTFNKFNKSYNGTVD
Source text: as §1, §2

ανβ6 = ανβ6 (Homo sapiens, UniProt P06756+P18564); assay: IC50 binding activity, αvβ6 integrin
Chain of ανβ6 (P06756 31-1048): as the sequence (P06756 31-1048) above
Chain of ανβ6 (P18564 22-788): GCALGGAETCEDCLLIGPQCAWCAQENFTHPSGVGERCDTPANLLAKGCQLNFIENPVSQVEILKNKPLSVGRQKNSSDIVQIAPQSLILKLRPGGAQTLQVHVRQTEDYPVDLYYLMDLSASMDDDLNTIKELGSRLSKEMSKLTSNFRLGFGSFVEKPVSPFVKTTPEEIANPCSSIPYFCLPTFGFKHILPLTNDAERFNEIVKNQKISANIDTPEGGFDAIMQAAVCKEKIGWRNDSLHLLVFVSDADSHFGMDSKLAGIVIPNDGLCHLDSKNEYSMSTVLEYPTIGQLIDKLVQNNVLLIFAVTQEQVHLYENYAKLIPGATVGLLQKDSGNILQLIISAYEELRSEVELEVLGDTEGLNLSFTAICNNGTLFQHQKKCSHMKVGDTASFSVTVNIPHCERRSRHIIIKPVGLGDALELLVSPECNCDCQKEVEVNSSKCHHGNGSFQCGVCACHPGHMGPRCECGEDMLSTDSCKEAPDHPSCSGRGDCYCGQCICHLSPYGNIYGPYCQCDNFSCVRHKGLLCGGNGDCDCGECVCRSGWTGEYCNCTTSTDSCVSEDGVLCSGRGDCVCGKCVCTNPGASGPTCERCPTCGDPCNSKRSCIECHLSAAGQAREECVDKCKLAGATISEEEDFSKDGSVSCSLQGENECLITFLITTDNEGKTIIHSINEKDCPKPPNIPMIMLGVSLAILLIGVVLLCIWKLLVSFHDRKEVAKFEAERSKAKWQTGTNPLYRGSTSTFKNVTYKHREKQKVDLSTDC
Source text: As reported in the following Table 1, IC50 binding data was obtained for the integrin targeting ligands of Structures 1c, 2c, and 3c, as w ell as an RGD-mimetic peptide: […]

Chain of αvβ3 integrin (P06756 31-1048): as the sequence (P06756 31-1048) above
Chain of αvβ3 integrin (P05106 27-788): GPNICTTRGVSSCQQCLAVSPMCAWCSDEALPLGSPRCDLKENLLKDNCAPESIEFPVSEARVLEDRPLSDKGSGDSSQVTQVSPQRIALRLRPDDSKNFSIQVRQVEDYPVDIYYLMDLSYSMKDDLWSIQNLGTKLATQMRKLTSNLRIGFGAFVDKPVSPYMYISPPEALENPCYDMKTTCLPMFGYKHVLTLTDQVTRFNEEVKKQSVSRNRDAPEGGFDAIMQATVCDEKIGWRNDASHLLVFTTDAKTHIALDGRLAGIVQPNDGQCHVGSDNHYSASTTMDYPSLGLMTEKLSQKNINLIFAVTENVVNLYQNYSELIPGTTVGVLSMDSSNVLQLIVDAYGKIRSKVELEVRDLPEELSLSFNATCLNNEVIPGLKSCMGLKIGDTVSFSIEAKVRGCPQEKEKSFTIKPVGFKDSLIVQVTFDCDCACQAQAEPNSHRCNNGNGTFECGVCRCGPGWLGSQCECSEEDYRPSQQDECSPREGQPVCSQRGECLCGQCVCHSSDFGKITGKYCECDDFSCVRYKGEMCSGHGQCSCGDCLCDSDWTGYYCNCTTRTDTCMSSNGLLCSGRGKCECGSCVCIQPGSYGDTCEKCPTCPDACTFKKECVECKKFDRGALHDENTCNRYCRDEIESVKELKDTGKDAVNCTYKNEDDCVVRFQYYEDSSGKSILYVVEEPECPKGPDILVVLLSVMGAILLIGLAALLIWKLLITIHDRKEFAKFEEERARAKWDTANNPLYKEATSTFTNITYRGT

Row | IC50 (αvβ3 integrin) | IC50 (αvβ5 integrin) | IC50 (ανβ6) | SMILES
1 | 0.3 nM | 0.6 nM | 5.3 nM | [N-]=[N+]=NCCOCCOCCOCCOCCC(=O)NCCCOc1ccc([C@H](CC(=O)O)N2CCN(CCCc3ccc4c(n3)NCCC4)C2=O)cn1 [Structure 1c, (S)-3-(6-((1-azido-15-oxo-3,6,9,12-tetraoxa-16-azanonadecan-19-yl)oxy)pyridin-3-yl)-3-(2-oxo-3-(3-(5,6,7,8-tetrahydro-1,8-naphthyridin-2-yl)propyl)imidazolidin-1-yl)propanoic acid]
2 | 0.3 nM | 5.6 nM | 8.9 nM | [N-]=[N+]=NCCOCCOCCOCCOc1ccc([C@H](CC(=O)O)N2CCN(CCCc3ccc4c(n3)NCCC4)C2=O)cc1F [Structure 2c, (S)-3-(4-(2-(2-(2-(2-azidoethoxy)ethoxy)ethoxy)ethoxy)-3-fluorophenyl)-3-(2-oxo-3-(3-(5,6,7,8-tetrahydro-1,8-naphthyridin-2-yl)propyl)imidazolidin-1-yl)propanoic acid]
